Test results as given in patent US8912216B2, “Hetaryl-[1,8]naphthyridine derivatives” (Merck Patent GmbH, priority 2010, dated 2014).

Columns and labels:
[1] = biological target: T1, GST-ALK5 (Homo sapiens, UniProt P36897); experiment: In-vitro (enzyme) kinase assay, 384-well flashplate (Example 36); format: biochemical; conditions: GST-ALK5, GST-SMAD2 substrate, 3 mM ATP, 30° C., 45 min; read-out: TβR activity (Example 36)
T1 sequence (P36897 34-503): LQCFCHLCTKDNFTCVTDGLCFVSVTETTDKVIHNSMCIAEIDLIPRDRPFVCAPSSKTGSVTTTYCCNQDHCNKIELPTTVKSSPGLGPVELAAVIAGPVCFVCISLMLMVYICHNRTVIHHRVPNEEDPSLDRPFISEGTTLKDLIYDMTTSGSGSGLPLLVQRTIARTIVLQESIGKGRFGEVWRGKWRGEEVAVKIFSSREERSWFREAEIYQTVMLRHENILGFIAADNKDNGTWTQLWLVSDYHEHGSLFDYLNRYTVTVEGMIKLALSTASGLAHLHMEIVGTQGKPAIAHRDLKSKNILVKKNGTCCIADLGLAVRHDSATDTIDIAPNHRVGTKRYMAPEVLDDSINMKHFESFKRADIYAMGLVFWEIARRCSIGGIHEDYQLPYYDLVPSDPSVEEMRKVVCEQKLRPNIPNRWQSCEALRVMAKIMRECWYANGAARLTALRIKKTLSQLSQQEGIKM
Summary of the method: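 Radiometric flashplate assay: 31.2 nM GST-ALK5 phosphorylating 439 nM GST-SMAD2 with 3 mM ATP plus ³³P-ATP, in HEPES/MgCl2/MnCl2/DTT/BSA buffer pH 7.4, 45 min at 30 °C, 5-10 compound concentrations. EDTA stop, filtration and washing, then radioactivity counted; IC50 derived from the curve.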

[2] = tested on: TGF-beta-induced phosphorylation of Smad2 and Smad3 in Mv1-Lu cells; experiment: Inhibition of Smad2/3 phosphorylation in Mv1Lu cells (Example 35A); format: cell-based, mink Mustela vison; conditions: Neogale vison, Mv1-Lu cells, TGF-beta 1 5 ng/ml, phospho-Smad2/3 ELISA, read-out: TβR activity (Example 35A)
Summary of the method: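 Serum-starved (16-20 h) Mv1-Lu mink lung epithelial cells were pre-incubated 1.5 h with compound dilutions (0.2% DMSO), then stimulated 1 h with 5 ng/ml TGF-beta 1. Phospho-Smad2 (Ser465/467)/Smad3 (Ser423/425) in lysates was measured by ELISA. IC50 came from dose-response fits between stimulated and unstimulated controls.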

Structure (SMILES) | IC50 [1] [nM] | IC50 [2] [nM]
CN1CCN(c2ccc(-c3cncc(-c4cc(-c5cc(F)ccc5F)nc5ncccc45)c3)cn2)CC1 [compound 121, 2-(2,5-Difluoro-phenyl)-4-[6′-(4-methyl-piperazin-1-yl)-[3,3′]bipyridinyl-5-yl]-[1,8]naphthyridine] | < 100 | 100 to 1000
Fc1ccc(Cl)cc1-c1cc(-c2cncc(-c3ccnc(N4CCOCC4)c3F)c2)c2cccnc2n1 [compound 108, 2-(5-Chloro-2-fluoro-phenyl)-4-(3′-fluoro-2′-morpholin-4-yl-[3,4′]bipyridinyl-5-yl)-[1,8]naphthyridine] | 100 to 1000 | 100 to 1000
OCCn1cc(-c2cncc(-c3cc(-c4cc(Cl)ccc4F)nc4ncccc34)c2)cn1 [compound 91, 2-(4-{5-[2-(5-Chloro-2-fluoro-phenyl)-[1,8]naphthyridin-4-yl]-pyridin-3-yl}-pyrazol-1-yl)-ethanol] | < 100 | < 100
Fc1ccc(Cl)cc1-c1cc(-c2cncc(-c3cnn(CCN4CCCC4)c3)c2)c2cccnc2n1 [compound 21, 2-(5-Chloro-2-fluoro-phenyl)-4-{5-[1-(2-pyrrolidin-1-yl-ethyl)-1H-pyrazol-4-yl]-pyridin-3-yl}-[1,8]naphthyridine] | < 100 | < 100
Cn1cc(-c2cncc(-c3cc(-c4ccccc4F)nc4ncccc34)c2)cn1 [compound 15, 2-(2-Fluoro-phenyl)-4-[5-(1-methyl-1H-pyrazol-4-yl)-pyridin-3-yl]-[1,8]naphthyridine] | < 100 | 100 to 1000
CN1CCc2ccc(-c3cncc(-c4cc(-c5cc(Cl)ccc5F)nc5ncccc45)c3)cc2C1 [compound 163, 2-(5-Chloro-2-fluoro-phenyl)-4-[5-(2-methyl-1,2,3,4-tetrahydro-isoquinolin-7-yl)-pyridin-3-yl]-[1,8]naphthyridine] | < 100 | < 100
Cn1cc(-c2cncc(-c3cc(-c4cc(Cl)ccc4F)nc4ncccc34)c2)cn1 [compound 7, 2-(5-chloro-2-fluoro-phenyl)-4-[5-(1-methyl-1H-pyrazol-4-yl)-pyridin-3-yl]-[1,8]naphthyridine] | < 100 | 100 to 1000
OCCN(CCO)c1cccc(-c2cncc(-c3cc(-c4cc(Cl)ccc4F)nc4ncccc34)c2)n1 [compound 170, 2-[{5′-[2-(5-Chloro-2-fluoro-phenyl)-[1,8]naphthyridin-4-yl]-[2,3′]bipyridinyl-6-yl}-(2-hydroxy-ethyl)amino]-ethanol] | < 100 | 100 to 1000
Fc1ccc(Cl)cc1-c1cc(-c2cncc(-c3cccc4c3CCNC4)c2)c2cccnc2n1 [compound 168, 2-(5-Chloro-2-fluoro-phenyl)-4-[5-(1,2,3,4-tetrahydro-isoquinolin-5-yl)-pyridin-3-yl]-[1,8]naphthyridine] | 1000 to 10000 | 1000 to 10000
Cc1ccn(-c2cc(-c3cncc(-c4ccc(N5CCN(C)CC5)cc4)c3)c3cccnc3n2)n1 [compound 128, 4-{5-[4-(4-Methyl-piperazin-1-yl)-phenyl]-pyridin-3-yl}-2-(3-methyl-pyrazol-1-yl)-[1,8]naphthyridine] | 1000 to 10000 | 1000 to 10000
CN(C)CCc1ccc(-c2cncc(-c3cc(-c4cc(Cl)ccc4F)nc4ncccc34)c2)cc1 [compound 162, [2-(4-{5-[2-(5-Chloro-2-fluoro-phenyl)-[1,8]naphthyridin-4-yl]-pyridin-3-yl}-phenyl)-ethyl]-dimethyl-amine] | < 100 | < 100
Fc1ccc(Cl)cc1-c1cc(-c2cncc(-c3ccc(OCCN4CCCC4)cc3)c2)c2cccnc2n1 [compound 156, 2-(5-Chloro-2-fluoro-phenyl)-4-{5-[4-(2-pyrrolidin-1-yl-ethoxy)-phenyl]-pyridin-3-yl}-[1,8]naphthyridine] | < 100 | < 100
CN1CCC(c2nc(-c3cncc(-c4cc(-c5cc(Cl)ccc5F)nc5ncccc45)c3)no2)CC1 [compound 61, 2-(5-Chloro-2-fluoro-phenyl)-4-{5-[5-(1-methyl-piperidin-4-yl)-[1,2,4]oxadiazol-3-yl]-pyridin-3-yl}-[1,8]naphthyridine] | < 100 | 100 to 1000
Fc1ccc(Cl)cc1-c1cc(-c2cncc(-c3ccc4c(c3)CCNC4)c2)c2cccnc2n1 [compound 155, 2-(5-Chloro-2-fluoro-phenyl)-4-[5-(1,2,3,4-tetrahydro-isoquinolin-6-yl)-pyridin-3-yl]-[1,8]naphthyridine] | < 100 | < 100
Fc1ccccc1-c1cc(-c2cncc(-c3cnn(CCCN4CCOCC4)c3)c2)c2cccnc2n1 [compound 87, 2-(2-Fluoro-phenyl)-4-{5-[1-(3-morpholin-4-yl-propyl)-1H-pyrazol-4-yl]-pyridin-3-yl}-[1,8]naphthyridine] | < 100 | 100 to 1000
CN1CC[C@H](n2cc(-c3cncc(-c4cc(-c5ccccc5F)nc5ncccc45)c3)cn2)C1 [compound 69, 2-(2-Fluoro-phenyl)-4-{5-[1-((S)-1-methyl-pyrrolidin-3-yl)-1H-pyrazol-4-yl]-pyridin-3-yl}-[1,8]naphthyridine] | < 100 | < 100
